These results are taken from PubChem BioAssay AID330 (DTP/NCI, 2004).

In this assay the test system is P388 leukemia ip, CD2F1 mice, survival T/C. Description: NCI In Vivo Anticancer Drug Screen. Data for tumor model P388 Leukemia (intraperitoneal) in CD2F1 (CDF1) mice. Conditions: endpoint: median survival time, higher = longer survival. In outline:
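Mice carrying the transplanted tumor received test compound or vehicle. Survival was recorded in each group, and the value is the treated-group measurement divided by that of the vehicle-treated control group.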

Where [1] appears, read: dose: 50.0 mg/kg/injection, schedule: Q01DX005 (ip), vehicle: Klucel (hydroxypropylcellulose) (HPC).
The mark [2] stands for this setting: dose: 100.0 mg/kg/injection, schedule: Q01DX005 (ip), vehicle: Klucel (hydroxypropylcellulose) (HPC).
Setting [3] is: dose: 200.0 mg/kg/injection, schedule: Q01DX005 (ip), vehicle: Klucel (hydroxypropylcellulose) (HPC).
Where [4] appears, read: dose: 50.0 mg/kg/injection, schedule: Q01DX009 (ip), vehicle: Klucel (hydroxypropylcellulose) (HPC).
[5] abbreviates: dose: 100.0 mg/kg/injection, schedule: Q01DX009 (ip), vehicle: Klucel (hydroxypropylcellulose) (HPC).
[6] abbreviates: dose: 200.0 mg/kg/injection, schedule: Q01DX009 (ip), vehicle: Klucel (hydroxypropylcellulose) (HPC).
Where [7] appears, read: dose: 6.25 mg/kg/injection, schedule: Q01DX009 (ip), vehicle: saline.
Where [8] appears, read: dose: 12.5 mg/kg/injection, schedule: Q01DX009 (ip), vehicle: saline.
The mark [9] stands for this setting: dose: 25.0 mg/kg/injection, schedule: Q01DX009 (ip), vehicle: saline.

Several values for one entry are separate records, joined by “and”; a condition that tells them apart may be missing. Equal entries are not always repeated. Toxic doses and inconclusive results are not listed.

In the case of `CCCCCCCCCCCC(=O)NCCCCCC(=O)NC1C(C)OC(Nc2ncnc3nc[nH]c23)C(O)C1O` (configuration not stated), the T/C reads like this: (dose: 0.5 mg/kg/injection, schedule: Q01DX009 (ip), vehicle: water) 99 % of control; (dose: 1.0 mg/kg/injection, schedule: Q01DX009 (ip), vehicle: water) 99 % of control; (dose: 2.0 mg/kg/injection, schedule: Q01DX009 (ip), vehicle: water) 115 % of control; (dose: 4.0 mg/kg/injection, schedule: Q01DX009 (ip), vehicle: water) 115 % of control; (dose: 8.0 mg/kg/injection, schedule: Q01DX009 (ip), vehicle: distilled water + Tween-80) 87 % of control; (dose: 8.0 mg/kg/injection, schedule: Q01DX009 (ip), vehicle: water) 117 % of control. Moreover, the T/C reads like this: (dose: 16.0 mg/kg/injection, schedule: Q01DX009 (ip), vehicle: distilled water + Tween-80) 89 % of control; (dose: 32.0 mg/kg/injection, schedule: Q01DX009 (ip), vehicle: distilled water + Tween-80) 114 % of control; (dose: 64.0 mg/kg/injection, schedule: Q01DX009 (ip), vehicle: distilled water + Tween-80) 123 % of control.

Take `CC(CCc1ccccc1)NC1=NCCO1` (configuration not stated): the T/C (dose: 100.0 mg/kg/injection, schedule: Q04DX003 (ip), vehicle: saline with Tween-80) is 95 % of control; the T/C (dose: 200.0 mg/kg/injection, schedule: Q04DX003 (ip), vehicle: saline with Tween-80) is 100 % of control; the T/C (dose: 400.0 mg/kg/injection, schedule: Q04DX003 (ip), vehicle: saline with Tween-80) was 90 % of control.

In the case of `CCCCC1(CC)COC(C)(c2ccccc2)OC1` (configuration not stated), the T/C is 112 % of control (dose: 75.0 mg/kg/injection, schedule: Q01DX009 (ip), vehicle: saline); 110 % of control (dose: 150.0 mg/kg/injection, schedule: Q01DX009 (ip), vehicle: saline); 108 % of control (dose: 300.0 mg/kg/injection, schedule: Q01DX009 (ip), vehicle: saline).

Consider `O=C1c2ccccc2C(=O)C2C3C=CC(CC3)C12` (configuration not stated), for which the T/C is 105 % of control under setting [1], 102 % of control under setting [2] and 99 % of control under setting [3].

Take `O=C1C(=O)N(c2cccc(Cl)c2)C(=O)N1Cc1ccccc1`: the T/C under setting [4] is 98 % of control, the T/C under setting [5] is 104 % of control and the T/C under setting [6] is 104 % of control.

As to `C=C1C[C@@H](O)[C@H](O)[C@@]2(C)C[C@@H]3OC(=O)C(=C)[C@@H]3C[C@H]12`, the T/C (dose: 3.12 mg/kg/injection, schedule: Q01DX009 (ip), vehicle: saline) was 103 % of control; the T/C under setting [7] was 104 % of control and 119 % of control; the T/C under setting [8] was 104 % of control and 113 % of control; the T/C under setting [9] is 122 % of control.

As to `CC1(C)CO[Se](=O)OC1`, the T/C (dose: 3.13 mg/kg/injection, schedule: Q01DX009 (ip), vehicle: saline) is 114 % of control.

In the case of `COc1ccc(CSC(=S)Nc2ccccc2C(F)(F)F)cc1`, the T/C reads like this: (dose: 50.0 mg/kg/injection, schedule: Q01DX009 (ip), vehicle: suspension in saline) 93 % of control; (dose: 100.0 mg/kg/injection, schedule: Q01DX009 (ip), vehicle: suspension in saline) 91 % of control; (dose: 200.0 mg/kg/injection, schedule: Q01DX009 (ip), vehicle: suspension in saline) 92 % of control.

For `CC(=O)N1C(CO)C(O)C(O)C1n1cnc2c(N)ncnc21` (configuration not stated), the T/C was 95 % of control under setting [1]; 100 % of control under setting [2]; 100 % of control under setting [3]; 100 % of control (dose: 300.0 mg/kg/injection, schedule: Q01DX005 (ip), vehicle: Klucel (hydroxypropylcellulose) (HPC)).

Consider `Cn1c(=O)oc2c(Br)cc(Br)cc21`, for which the T/C runs as follows: (dose: 50.0 mg/kg/injection, schedule: Q04DX002 (ip), vehicle: Klucel (hydroxypropylcellulose) (HPC)) 101 % of control; (dose: 100.0 mg/kg/injection, schedule: Q04DX002 (ip), vehicle: Klucel (hydroxypropylcellulose) (HPC)) 104 % of control; (dose: 200.0 mg/kg/injection, schedule: Q04DX002 (ip), vehicle: Klucel (hydroxypropylcellulose) (HPC)) 101 % of control.

With `O=c1cc2n(c(=O)n1-c1ccccc1)CCCC2`, the T/C is 102 % of control (dose: 60.0 mg/kg/injection, schedule: Q01DX005 (ip), vehicle: saline with Tween-80); 100 % of control (dose: 120.0 mg/kg/injection, schedule: Q01DX005 (ip), vehicle: saline with Tween-80); 103 % of control (dose: 240.0 mg/kg/injection, schedule: Q01DX005 (ip), vehicle: saline with Tween-80).

For `CN=C(N)N/N=C(\C)c1ccc2c(c1)-c1ccc(/C(C)=N/NC(N)=NC)c3cccc-2c13`, the T/C reads like this: (dose: 3.12 mg/kg/injection, schedule: Q04DX002 (ip), vehicle: saline with Tween-80) 104 % of control; (dose: 6.25 mg/kg/injection, schedule: Q04DX002 (ip), vehicle: saline with Tween-80) 99 % of control; (dose: 12.5 mg/kg/injection, schedule: Q04DX002 (ip), vehicle: saline with Tween-80) 100 % of control.

With `S=C(S)N1CCOCC1`, the T/C is 100 % of control (dose: 50.0 mg/kg/injection, schedule: Q04DX003 (ip), vehicle: saline); 100 % of control (dose: 100.0 mg/kg/injection, schedule: Q04DX003 (ip), vehicle: saline); 100 % of control (dose: 200.0 mg/kg/injection, schedule: Q04DX003 (ip), vehicle: saline).

`O=C(O)CNc1ccccc1.[Cu+2]`: the T/C was 98 % of control (dose: 6.25 mg/kg/injection, schedule: Q01DX001 (ip), vehicle: Klucel (hydroxypropylcellulose) (HPC)); 98 % of control (dose: 12.5 mg/kg/injection, schedule: Q01DX001 (ip), vehicle: Klucel (hydroxypropylcellulose) (HPC)); 101 % of control and 112 % of control (dose: 25.0 mg/kg/injection, schedule: Q01DX001 (ip), vehicle: Klucel (hydroxypropylcellulose) (HPC)).

On to `CC1(C)N=C(N)N=C(N)N1c1ccc(CN)cc1`, for which the T/C (dose: 60.0 mg/kg/injection, schedule: Q01DX005 (ip), vehicle: saline) is 110 % of control; the T/C (dose: 120.0 mg/kg/injection, schedule: Q01DX005 (ip), vehicle: saline) is 103 % of control; the T/C (dose: 240.0 mg/kg/injection, schedule: Q01DX005 (ip), vehicle: saline) was 106 % of control.

In the case of `CCCCCCCN(CCCCCCC)CC(O)c1c(Br)c2cc(Br)ccc2c2ccc(Br)cc12` (configuration not stated), the T/C (dose: 1.25 mg/kg/injection, schedule: Q01DX009 (ip), vehicle: saline with Tween-80) is 105 % of control; the T/C (dose: 2.5 mg/kg/injection, schedule: Q01DX009 (ip), vehicle: saline with Tween-80) was 106 % of control; the T/C (dose: 5.0 mg/kg/injection, schedule: Q01DX009 (ip), vehicle: saline with Tween-80) is 100 % of control.

Consider `CCOC(=O)C(=O)Nc1c(C(=O)OC)cc(C)c(C)c1C#N`, for which the T/C under setting [4] was 93 % of control, the T/C under setting [5] is 94 % of control and the T/C under setting [6] is 93 % of control.

On to `OC(CN1CCCCC1)c1ccc(/C=C/c2ccc(Cl)cc2)cc1` (configuration not stated), for which the T/C was 100 % of control under setting [7], 95 % of control under setting [8] and 96 % of control under setting [9].

Regarding `Cc1ccc2nc(NC(=S)NCCCCCCNC(=S)Nc3ccc4cc(C)ccc4n3)ccc2c1`, the T/C reads like this: under setting [4], 93 % of control; under setting [5], 93 % of control.

As for `CC1(C)C2CCC(CN)C1C2` (configuration not stated), the T/C is, setting by setting: (dose: 12.5 mg/kg/injection, schedule: Q01DX009 (ip), vehicle: other) 96 % of control; (dose: 25.0 mg/kg/injection, schedule: Q01DX009 (ip), vehicle: other) 97 % of control; (dose: 50.0 mg/kg/injection, schedule: Q01DX009 (ip), vehicle: other) 100 % of control.

`CCC1C(OC)=CC(CC)(C(=O)OC)C=C1OC` (configuration not stated): the T/C (dose: 50.0 mg/kg/injection, schedule: Q01DX005 (ip), vehicle: saline with Tween-80) was 100 % of control; the T/C (dose: 100.0 mg/kg/injection, schedule: Q01DX005 (ip), vehicle: saline with Tween-80) is 107 % of control; the T/C (dose: 200.0 mg/kg/injection, schedule: Q01DX005 (ip), vehicle: saline with Tween-80) is 107 % of control.

On to `COc1cccc2c1C(=O)c1c(O)c3c(c(O)c1C2=O)CC(O)(C(=O)CO)CC3OC1CC(N/C(C)=C/C(C)=O)C(O)C(C)O1` (configuration not stated), for which the T/C (dose: 10.0 mg/kg/injection, schedule: Q04DX003 (ip), vehicle: saline with Tween-80) was 160 % of control.

In the case of `Cc1ccc(N=Cc2ccccc2O)c(Br)c1`, the T/C is 88 % of control under setting [4], 89 % of control under setting [5] and 98 % of control under setting [6].
